{"source": "patent US20080160163A1", "about": "“Reduction of Digestibility of Phosphorus” (BAYER HEALTHCARE AG, priority 2005, published 2008)", "key": {"[1]": {"test_system": "adult healthy domestic cats", "settings": "0.3 and 3.0 g per kg of feed for two weeks", "from_the_text": "Within the context of a larger study, 24 adult healthy domestic cats of both genders, individually fed with a commercially available regular canned diet (‘Petley's Gourmet Supreme Beef Casserole’, PROMEAL (PTY) Ltd., containing 0.19% phosphorus corresponding to 1.13% phosphorus in the dry matter), were randomised to three equal groups of eight animals which were fed for two weeks with dose levels corresponding to 0, 0.3, and 3.0 grams of lanthanum carbonate octahydrate per kg of feed in their daily feed ration.\n(§1) During the study the amount of food consumed was recorded daily and the animals were observed daily for the possible occurrence of adverse events. In the faeces collected over a three-day sampling period at the end of the study, the phosphorus levels were measured. On comparing the dietary intake of phosphorus with the excretion of phosphorus in the faeces, the apparent phosphorus digestibility was calculated according to the following equation: […]"}, "[2]": {"test_system": "adult healthy female beagle dogs", "settings": "dogs, 1.75, 5.0 and 17.5 g per kg of feed", "from_the_text": "A total of twelve adult healthy female beagle dogs were individually fed with a commercially available regular canned feed (‘Eukanuba Adult with much lamb’, IAMs Pet Food Ltd., containing 0.25% of phosphorus corresponding to 1.09% phosphorus in the dry matter). At weekly intervals, their diet was supplemented with increasing amounts of lanthanum carbonate octahydrate, thus resulting in final concentrations of the feed additive of 0, 1.75, 5.0, and 17.5 g of lanthanum carbonate octahydrate per kg of feed.\nas §1, with “two-day” for “three-day”"}, "[3]": {"test_system": "adult healthy domestic cats", "from_the_text": "Fifteen adult healthy domestic cats of both genders were individually fed with commercially available regular canned diet (Premium Pate rich in lamb, IAMS Pet Food GmbH & Co containing 0.26% of phosphorus corresponding to 1.13% phosphorus in the dry matter). The aim of the study was to assess the palatability and safety of lanthanum carbonate octahydrate especially in high doses. Therefore 10 cats were fed lanthanum carbonate octahydrate in their daily feed ration at increasing doses. The study began with a dose level of about 12-15 g per kg of feed (dry matter). The dose was doubled every two weeks up to a dose level of about 96-120 g per kg of feed (dry matter). Five cats were given the feed without any lanthanum carbonate octahydrate and served as controls.\nPalatability was assessed daily by observing the general acceptance of the feed. Tolerability and safety were assessed by measuring the blood serum phosphate levels and body weight at regular intervals as well as by daily observations concerning the health status and the possible occurrence of adverse events."}, "[4]": {"settings": "up to a dose level of 1 g/kg of body weight (=about 108 mg per kg of dry feed)"}}, "data": [{"smiles": "O.O.O.O.O.O.O.O.O=C([O-])[O-].O=C([O-])[O-].O=C([O-])[O-].[La+3].[La+3]", "note": "[lanthanum carbonate octahydrate]", "values": [{"measurement": "tolerance in the study animals", "setting": "[1]", "result": "no negative effect"}, {"measurement": "apparent phosphorus digestibility", "setting": "[1]; FIG. 1.2", "result": "corresponding decrease"}, {"measurement": "phosphorus content in the faeces", "setting": "[1]; faeces collected over three days, FIG. 1.1", "result": "dose-dependently increased"}, {"measurement": "tolerance in the study animals", "setting": "[2]", "result": "no negative effect"}, {"measurement": "apparent phosphorus digestibility", "setting": "[2]; FIG. 2.2", "result": "corresponding decrease"}, {"measurement": "phosphorus content in the faeces", "setting": "[2]; increased weekly, faeces collected over two days, FIG. 2.1", "result": "dose-dependently increased"}, {"measurement": "tolerance of the study animals", "setting": "[3]; even in extremely high doses", "result": "no negative effect"}, {"measurement": "palatability or acceptance of the feed or its safety compared to the control cats", "setting": "[3]; increasing doses vs control cats", "result": "no difference"}, {"measurement": "adverse events", "setting": "[3]; [4]", "result": "no limiting adverse events"}, {"measurement": "body weight", "setting": "[3]; [4]", "result": "no changes"}, {"measurement": "serum phosphate levels", "setting": "[3]; [4]", "result": "no changes"}]}]}
